Consider 1 compound from paper PMC11054638, “Transport of Non-Steroidal Anti-Inflammatory Drugs across an Oral Mucosa Epithelium In Vitro Model” (Pharmaceutics, 2024).

The conditions of data set [1]: CXlogD at pH 7.4 ref https://ebi.ac.uk (02.04.2024); cited from earlier work.
Data set [2] deals with JAK1, TRAF2 and RELA mRNA in TR146 cells. As to the kind of experiment: qPCR of JAK1, TRAF2 and RELA after inflammation study. It counts as cell-based, human. Particulars: 48 h. Here is the method:
® were seeded with cells as described above. […] Prior to treating cells with prepared DMEM solutions, TEER was measured in cultivation media DMEM supplemented with 1% Penicillin/Streptomycin and 10% Fetal Calf Serum. Subsequently, cell layers and blanks were washed with DMEM (without supplements) twice on the apical and basolateral compartment, followed by TEER measurements in DMEM. Media of cells were replaced with previously prepared DMEM solutions. Control media was applied on the blanks. After 48 h treatment at 37 °C, 5% CO2 and 95% humidity TEER was measured. […] Media were immediately collected and measured for the RFU content using the EnSpire as described above. Afterwards, media were stored at -20 °C until further usage. […] For qPCR, samples were analysed as triplicates using the LightCycler480 II (Roche) with the program described in Lin et al. with primers for 18SrRNA (5'-3' forward: [NT], 5'-3' reverse: [NT], Janus Kinase 1 transcript variant a (JAK1tva) (5'-3' forward: [NT], 5'-3' reverse: [NT], JAK1tvb (5'-3' forward: [NT], 5'-3' reverse: [NT], JAK1tvc (5'-3' forward: [NT], 5'-3' reverse: [NT] Receptor Associated Factor 2 (TRAF2) tvb (5'-3' forward: [NT], 5'-3' reverse: […]2tvc (5'-3' forward: [NT], 5'-3' reverse: [NT] and nuclear factor κB (NF-κB) RelA (forward 5'-3': [NT], reverse 5'-3': […]
(In general: Quantitative PCR measures a nucleic acid by following its amplification.)

In the next data set the test system is PC3 cells. Particulars: 1500 µM for 24 h ref 60; cited from earlier work.
Data set [3] is described as follows: Transport study across blank inserts without cells. Particulars: Ibuprofen study, mean ± SD. Here is the method:
First, TEER was measured in cultivation media on the day of experiment. Afterwards, cells and blanks were washed twice with DMEM on the apical (300 µL) and basolateral (900 µL) compartments and selected cells and blanks were treated with DMEM with or without 100 µM probenecid or verapamil on the apical and basolateral side at 37 °C for 30 min. […] To cells which were pre-incubated with probenecid or verapamil, 100 µM probenecid or verapamil was applied apically as well. DMSO content was adapted for cells with no inhibitors, and DMSO and dd-H2O content was adjusted in the basolateral compartment as well in order to apply the same vehicle concentrations on the apical and basolateral compartment. […] Subsequently, duplicates of apical sample were collected, and samples were frozen at −80 °C until further analysis with High-Performance Liquid Chromatography (HPLC).
Mean values of relative fluorescence unit (RFU) or detected area [mAU × min] were used for calculation. For the first timepoint, the clearance [µL] for the detected area was calculated as shown in the formula below (1a), with Abasot1 as the measured area [mAU × min] at the first time point of the basolateral sample, Vbaso as the basolateral volume [µL] and Astock as the area measured for the applied stock solution. […] Clearance [µL] for carboxyfluorescein was calculated with the same formulas using RFU. (1a) Clearance=Abasot1×Vbaso/AStock (1b) Clearancetn=Abasotn×Vbaso/AStock−∑(Abasotn−1 ×3− Abasot1 ×3)
Cleared volume [µL] was calculated by plotting the sum of clearance at all time points over time [min]. The resulting slope PS [µL/min] was calculated inversely. For calculation of the PScell, the inverse PS blanks were subtracted, as shown below in Formula (2). (2) 1/PScell=1/PSall−1/PSblank

The test system of a further data set is TR146 cell layers. The data set is described as follows: TEER after 48 h inflammation study. Particulars: 48 h treatment; ibuprofen 100 µM; cytokines 100 ng/mL each. It counts as cell-based, human.
For data set [4] the following is noted: after oral administration of 200 mg ref 52, 53; cited from earlier work.
The next data set is described as follows: in vitro. As to conditions: human, not told, permeability coefficient, without probenecid.

As to `CC(C)Cc1ccc(C(C)C(=O)O)cc1` (stereo not drawn) [ibuprofen], the XlogD in data set [1] is 1.34. Further, the “RELA mRNA expression” value in data set [2] (100 µM ibuprofen with inflammatory cytokines, p < 0.05) is “inhibit the increase in RELA”. Further, in data set [2] (cytokines 100 ng/mL each, ibuprofen 100 µM added during inflammation), the “JAK1 and TRAF2 mRNA expression” value is recorded as “did not block the upregulation”. In the data set with PC3 cells, the COX-2 expression entry is given as “upregulation of COX-2”. In addition, the PS blank stood at 0.22 ± 0.02 µL/min in data set [3] (Probenecid), 0.21 ± 0.02 µL/min in data set [3] (Verapamil) and 0.21 ± 0.03 µL/min in data set [3] (w/o Inhibitor). The “TEER values after 48 h” value in the data set on TR146 cell layers was 69.65 ± 9.10 Ω × cm^2. Moreover, in data set [4], the plasma concentration was 116 to 142.5 µM. For the same compound, the apparent permeability from apical to basolateral (Papp A→B) at 4 h in the data set “in vitro” (cell layers pre-treated with cytokines 48 h, 4 h transport) was 33.4 ×10⁻⁶ cm/s; in “in vitro” (cell layers pre-treated with cytokines plus ibuprofen 48 h, 4 h transport), 35.1 ×10⁻⁶ cm/s; in the data set “in vitro” (control cell layers, 4 h transport after 48 h), 24 ×10⁻⁶ cm/s.

For orientation: Papp A→B means how fast a substance crosses the layer from the apical side.
